Earlier results as cited in US20130327676A1, “Packaging of Solid Pharmaceutical Preparations Containing the Active Substance Glyceryl Trinitrate” (G. Pohl-Boskamp GmbH & Co. KG, priority 2011, published 2013).

Legend:
[1] = at 20° C.

O=[N+]([O-])OCC(CO[N+](=O)[O-])O[N+](=O)[O-] [GTN, glyceryl trinitrate]
vapor pressure [1]: 0.25 Pa
active substance originally contained in the tablets found in the polyethylene (polyethylene sealing layer of the packaging material): 84%
active substance remaining in tablets following storage, of originally contained (tablets packaged individually in aluminum foil films with polyethylene sealing layer): less than 10%
